Assay results as given in patent publication US20120172385A1, “ORTHO SUBSTITUTED PYRIMIDINE COMPOUNDS AS JAK INHIBITORS” (priority 2009, published 2012).

Assays:
[1] = system: organ transplantation; settings: Changelian et al., 2003; cited from earlier work
[2] = target: T1, JAK2 (Homo sapiens, UniProt O60674); assay: Kinobeads assay, JAK2 (dot blot detection); format: binding; settings: mixed Molt4/Ramos lysate
T1 construct: endogenous in cells; host or cells: Molt4 (ATCC CRL-1582) and Ramos (ATCC CRL-1596) cell lysate, mixed 1:2
Protocol: (§1) The compounds of the present invention as described in the previous examples were tested in a Kinobeads™ assay as described for ZAP-70 (WO-A 2007/137867). Briefly, test compounds (at various concentrations) and the affinity matrix with the immobilized aminopyrido-pyrimidine ligand 24 were added to cell lysate aliquots and allowed to bind to the proteins in the lysate sample. After the incubation time the beads with captured proteins were separated from the lysate. Bound proteins were then eluted and the presence of JAK2 and JAK3 was detected and quantified using specific antibodies in a dot blot procedure and the Odyssey infrared detection system. Dose response curves for individual kinases were generated and IC50 values calculated. Kinobeads™ assays for ZAP-70 (WO-A 2007/137867) and for kinase selectivity profiling (WO-A 2006/134056) have been previously described.
(§2) The affinity matrix was washed two times with 15 mL of 1×DP buffer containing 0.2% NP40 (IGEPAL® CA-630, Sigma, #I3021) and then resuspended in 1×DP buffer containing 0.2% NP40 (3% beads slurry).
(§3) 5×DP buffer: 250 mM Tris-HCl pH 7.4, 25% Glycerol, 7.5 mM MgCl2, 750 mM NaCl, 5 mM Na3VO4; filter the 5×DP buffer through a 0.22 μm filter and store in aliquots at −80° C. The 5×DP buffer is diluted with H2O to 1×DP buffer containing 1 mM DTT and 25 mM NaF.
(§4) Stock solutions of test compounds were prepared in DMSO. In a 96 well plate 30 μL solution of diluted test compounds at 5 mM in DMSO were prepared. Starting with this solution a 1:3 dilution series (9 steps) was prepared. For control experiments (no test compound) a buffer containing 2% DMSO was used.
(§5) Molt4 cells (ATCC catalogue number CRL-1582) and Ramos cells (ATCC catalogue number CRL-1596) were grown in 1 L Spinner flasks (Integra Biosciences, #182101) in suspension in RPMI 1640 medium (Invitrogen, #21875-034) supplemented with 10% Fetal Bovine Serum (Invitrogen) at a density between 0.15×10^6 and 1.2×10^6 cells/mL. Cells were harvested by centrifugation, washed once with 1×PBS buffer (Invitrogen, #14190-094) and cell pellets were frozen in liquid nitrogen and subsequently stored at −80° C. Cells were homogenized in a Potter S homogenizer in lysis buffer: 50 mM Tris-HCl, 0.8% NP40, 5% glycerol, 150 mM NaCl, 1.5 mM MgCl2, 25 mM NaF, 1 mM sodium vanadate, 1 mM DTT, pH 7.5. One complete EDTA-free tablet (protease inhibitor cocktail, Roche Diagnostics, 1873580) per 25 mL buffer was added. The material was dounced 10 times using a mechanized POTTER S, transferred to 50 mL falcon tubes, incubated for 30 minutes on ice and spun down for 10 minutes at 20,000 g at 4° C. (10,000 rpm in Sorvall SLA600, precooled). The supernatant was transferred to an ultracentrifuge (UZ)-polycarbonate tube (Beckmann, 355654) and spun for 1 hour at 100.000 g at 4° C. (33.500 rpm in Ti50.2, precooled). The supernatant was transferred again to a fresh 50 mL falcon tube, the protein concentration was determined by a Bradford assay (BioRad) and samples containing 50 mg of protein per aliquot were prepared. The samples were immediately used for experiments or frozen in liquid nitrogen and stored frozen at −80° C.
(§6) Cell lysate (approximately 50 mg protein per plate) was thawed in a water bath at room temperature and then stored on ice. To the thawed cell lysate 1×DP 0.8% NP40 buffer containing protease inhibitors (1 tablet for 25 mL buffer; EDTA-free protease inhibitor cocktail; Roche Diagnostics 1873580) was added in order to reach a final protein concentration of 10 mg/mL total protein. The diluted cell lysate was stored on ice. Mixed Molt4/Ramos lysate was prepared by combining one volume of Molt4 lysate and two volumes of Ramos lysate (ratio 1:2).
(§7) To a 96 well filter plate (Multiscreen HTS, BV Filter Plates, Millipore #MSBVN1250) were added per well: 100 μL affinity matrix (3% beads slurry), 3 μL of compound solution, and 50 μL of diluted lysate. […]

[3] = target: T2, JAK3 (Homo sapiens, UniProt P52333); assay: Kinobeads assay, JAK3 (dot blot detection); format: binding; settings: mixed Molt4/Ramos lysate
T2 construct: endogenous in cells; host or cells: Molt4 (ATCC CRL-1582) and Ramos (ATCC CRL-1596) cell lysate, mixed 1:2
T2 sequence (P52333 1-1124): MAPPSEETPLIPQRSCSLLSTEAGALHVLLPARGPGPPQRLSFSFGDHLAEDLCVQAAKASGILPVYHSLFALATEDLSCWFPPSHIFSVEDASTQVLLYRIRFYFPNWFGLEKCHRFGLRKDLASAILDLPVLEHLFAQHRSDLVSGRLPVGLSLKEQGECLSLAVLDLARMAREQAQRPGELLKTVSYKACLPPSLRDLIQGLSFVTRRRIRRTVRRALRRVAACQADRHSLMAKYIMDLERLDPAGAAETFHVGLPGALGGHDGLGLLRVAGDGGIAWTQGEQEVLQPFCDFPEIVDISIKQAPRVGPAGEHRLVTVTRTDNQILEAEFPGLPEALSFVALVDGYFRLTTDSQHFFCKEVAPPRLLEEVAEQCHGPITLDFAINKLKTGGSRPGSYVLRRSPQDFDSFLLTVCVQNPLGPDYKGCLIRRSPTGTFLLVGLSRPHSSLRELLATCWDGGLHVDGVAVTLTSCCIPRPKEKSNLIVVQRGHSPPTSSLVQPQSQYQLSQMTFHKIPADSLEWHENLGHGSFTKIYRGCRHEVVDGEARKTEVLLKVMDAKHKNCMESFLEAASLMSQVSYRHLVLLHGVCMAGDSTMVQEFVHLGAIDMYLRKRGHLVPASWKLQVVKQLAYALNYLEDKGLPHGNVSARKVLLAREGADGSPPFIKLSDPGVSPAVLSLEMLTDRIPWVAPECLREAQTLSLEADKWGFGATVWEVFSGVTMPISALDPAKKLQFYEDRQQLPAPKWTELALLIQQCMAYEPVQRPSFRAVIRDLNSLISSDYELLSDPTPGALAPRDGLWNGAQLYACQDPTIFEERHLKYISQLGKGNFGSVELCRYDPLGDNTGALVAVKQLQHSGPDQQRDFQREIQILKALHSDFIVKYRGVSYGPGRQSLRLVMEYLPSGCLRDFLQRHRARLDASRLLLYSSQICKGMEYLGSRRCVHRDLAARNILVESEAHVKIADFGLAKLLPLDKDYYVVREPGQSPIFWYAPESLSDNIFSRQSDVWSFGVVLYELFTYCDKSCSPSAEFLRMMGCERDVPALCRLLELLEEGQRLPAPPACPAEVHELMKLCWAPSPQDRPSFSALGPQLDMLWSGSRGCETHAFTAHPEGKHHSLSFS
Protocol: as §1, §2, §3, §4, §5, §6, §7

[4] = system: spontaneous autoimmune diabetes; settings: NOD mouse model of type I diabetes; cited from earlier work
[5] = system: GVHD; settings: reviewed in Cetkovic-Cvrlje and Ucken, 2004; cited from earlier work

T1 sequence (O60674 whole entry): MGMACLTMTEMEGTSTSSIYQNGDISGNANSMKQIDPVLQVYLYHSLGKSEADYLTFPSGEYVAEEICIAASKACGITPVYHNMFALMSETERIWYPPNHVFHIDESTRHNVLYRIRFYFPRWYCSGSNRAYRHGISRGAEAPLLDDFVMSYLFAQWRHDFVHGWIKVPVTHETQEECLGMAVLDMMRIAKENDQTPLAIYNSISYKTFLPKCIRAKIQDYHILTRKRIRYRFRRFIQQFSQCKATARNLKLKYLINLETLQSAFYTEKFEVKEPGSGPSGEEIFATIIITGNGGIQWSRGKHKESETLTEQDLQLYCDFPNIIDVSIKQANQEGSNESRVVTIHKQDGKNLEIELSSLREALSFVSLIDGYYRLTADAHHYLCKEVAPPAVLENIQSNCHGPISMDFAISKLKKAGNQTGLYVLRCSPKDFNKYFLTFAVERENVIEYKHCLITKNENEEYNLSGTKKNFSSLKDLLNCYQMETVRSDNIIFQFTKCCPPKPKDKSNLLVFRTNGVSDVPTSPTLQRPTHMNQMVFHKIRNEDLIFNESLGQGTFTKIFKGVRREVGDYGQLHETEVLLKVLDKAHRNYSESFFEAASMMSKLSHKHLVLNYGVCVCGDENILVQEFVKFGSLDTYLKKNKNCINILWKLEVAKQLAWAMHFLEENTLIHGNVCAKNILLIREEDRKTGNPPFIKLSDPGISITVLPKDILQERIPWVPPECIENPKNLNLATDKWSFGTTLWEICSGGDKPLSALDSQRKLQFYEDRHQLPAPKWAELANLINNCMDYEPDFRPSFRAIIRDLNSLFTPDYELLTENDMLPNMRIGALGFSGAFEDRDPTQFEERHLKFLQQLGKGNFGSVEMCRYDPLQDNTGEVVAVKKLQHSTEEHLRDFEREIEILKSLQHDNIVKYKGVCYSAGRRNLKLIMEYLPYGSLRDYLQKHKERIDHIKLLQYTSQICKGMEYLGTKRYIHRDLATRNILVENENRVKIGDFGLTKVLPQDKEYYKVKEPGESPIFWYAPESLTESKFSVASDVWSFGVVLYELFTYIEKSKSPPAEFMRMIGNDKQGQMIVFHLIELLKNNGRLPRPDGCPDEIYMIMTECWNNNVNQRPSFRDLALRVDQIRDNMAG

SMILES	efficacy in an animal model of organ transplantation [1]	IC50 [2]	IC50 [3]	prevention of spontaneous autoimmune diabetes development [4]	severity of GVHD [5]
C[C@@H]1CCN(C(=O)CC#N)C[C@@H]1N(C)c1ncnc2[nH]ccc12 [CP-690,550]	show efficacy	–	–	–	–
COc1ccc(Nc2nc(Nc3cc(-n4cnnc4)ccc3OC)ncc2Cl)c(NS(C)(=O)=O)c1 [Example 11, N-(2-(5-chloro-2-(2-methoxy-5-(4H-1,2,4-triazol-4-yl)phenylamino)pyrimidin-4-ylamino)-5-methoxyphenyl)methanesulfonamide]	–	1 to 10 µM	< 0.1 µM	–	–
COc1ccc(Nc2nc(Nc3cc(-n4cnnn4)ccc3C)ncc2Cl)c(NS(C)(=O)=O)c1 [Example 12, N-(2-(5-chloro-2-(2-methyl-5-(1H-tetrazol-1-yl)phenylamino)pyrimidin-4-ylamino)-5-methoxyphenyl)methanesulfonamide]	–	1 to 10 µM	< 0.1 µM	–	–
COc1ccc(Nc2nc(Nc3cc(-n4cnnc4)ccc3C)ncc2Cl)c(NS(C)(=O)=O)c1 [Example 13, N-(2-(5-chloro-2-(2-methyl-5-(4H-1,2,4-triazol-4-yl)phenylamino)pyrimidin-4-ylamino)-5-methoxyphenyl)methanesulfonamide]	–	0.1 to 1 µM	< 0.1 µM	–	–
Cc1ccc(C#N)cc1Nc1ncc(Cl)c(Nc2ccccc2NS(C)(=O)=O)n1 [Example 14, N-(2-(5-chloro-2-(5-cyano-2-methylphenylamino)pyrimidin-4-ylamino)phenyl)methanesulfonamide]	–	1 to 10 µM	0.1 to 1 µM	–	–
CNC(=O)c1ccc(Cl)c(Nc2ncc(Cl)c(Nc3ccccc3NS(C)(=O)=O)n2)c1 [Example 16, 4-Chloro-3-(5-chloro-4-(2-(methylsulfonamido)phenylamino)pyrimidin-2-ylamino)-N-methylbenzamide]	–	≥ 10 µM	0.1 to 1 µM	–	–
CNC(=O)c1ccc(OC)c(Nc2ncc(Cl)c(Nc3ccccc3NS(C)(=O)=O)n2)c1 [Example 17, 3-(5-chloro-4-(2-(methylsulfonamido)phenylamino)pyrimidin-2-ylamino)-4-methoxy-N-methylbenzamide]	–	≥ 10 µM	< 0.1 µM	–	–
COc1ccc(C(=O)NC(C)C)cc1Nc1ncc(Cl)c(Nc2ccccc2NS(C)(=O)=O)n1 [Example 18]	–	–	< 0.1 µM	–	–
COc1ccc(C(=O)N2CCCCC2)cc1Nc1ncc(Cl)c(Nc2ccccc2NS(C)(=O)=O)n1 [Example 19, N-(2-(5-chloro-2-(2-methoxy-5-(piperidine-1-carbonyl)phenylamino)pyrimidin-4-ylamino)phenyl)methanesulfonamide]	–	≥ 10 µM	0.1 to 1 µM	–	–
COc1ccc(C(=O)NC2CC2)cc1Nc1ncc(Cl)c(Nc2ccccc2NS(C)(=O)=O)n1 [Example 20]	–	–	< 0.1 µM	–	–
CCNC(=O)c1ccc(OC)c(Nc2ncc(Cl)c(Nc3ccccc3NS(C)(=O)=O)n2)c1 [Example 21]	–	–	< 0.1 µM	–	–
Cc1ccc(C#N)cc1Nc1ncc(Cl)c(Nc2cccc(F)c2NS(C)(=O)=O)n1 [Example 23, N-(2-(5-chloro-2-(5-cyano-2-methylphenylamino)pyrimidin-4-ylamino)-6-fluorophenyl)methanesulfonamide]	–	≥ 10 µM	1 to 10 µM	–	–
Cc1ccc(C(=O)N(C)C)cc1Nc1ncc(Cl)c(Nc2ccccc2NS(C)(=O)=O)n1 [Example 24, 3-(5-chloro-4-(2-(methylsulfonamido)phenylamino)pyrimidin-2-ylamino)-N,N,4-trimethylbenzamide]	–	≥ 10 µM	0.1 to 1 µM	–	–
CCS(=O)(=O)Nc1ccccc1Nc1nc(Nc2cc(C#N)ccc2OC)ncc1Cl [Example 25, N-(2-(5-chloro-2-(5-cyano-2-methoxyphenylamino)pyrimidin-4-ylamino)phenyl)ethanesulfonamide]	–	≥ 10 µM	0.1 to 1 µM	–	–
CCNC(=O)c1ccc(OC)c(Nc2ncc(Cl)c(Nc3ccccc3NS(=O)(=O)CC)n2)c1 [Example 26, 3-(5-chloro-4-(2-(ethylsulfonamido)phenylamino)pyrimidin-2-ylamino)-N-ethyl-4-methoxybenzamide]	–	≥ 10 µM	0.1 to 1 µM	–	–
CCS(=O)(=O)Nc1ccccc1Nc1nc(Nc2cc(C(=O)NC)ccc2OC)ncc1Cl [Example 27, 3-(5-chloro-4-(2-(ethylsulfonamido)phenylamino)pyrimidin-2-ylamino)-4-methoxy-N-methylbenzamide]	–	≥ 10 µM	0.1 to 1 µM	–	–
COc1cc2ncnc(Nc3ccc(O)cc3)c2cc1OC [JANEX-1]	–	–	–	prevent spontaneous autoimmune diabetes development	attenuate the severity of GVHD
